Reference: patent US8629293B2, “Process for the preparation of FE(III) chelates of N,N′-DI(2-hydroxybenzyl)-ethylenediamine-N,N′-diacetic acid and its derivatives” (Przedsiebiorstwo Produkcyjno-Consultingowe Adob SP. Z O.O. …, priority 2009, dated 2014)

What was measured:
Type in all cases: in vivo
[1] = tested on: 7-year old trees of flat peach (Prunus persica var. platycarpa) grafted on the GF677 root stock with visible symptoms of chlorosis; test: Field test, testing field No. 2: SPAD index of leaves; conditions: 0.9 g of the chelated Fe/tree
Method: (§1) The comparison included two chelate agents for supplementing iron deficiencies: HBED/Fe^3+ as well as the commercially available, highly purified EDDHA/Fe^3+. The studies were carried out on two fields with the soil having an alkaline pH as well as a high concentration of calcium ions. The chelates were applied directly to the soil by means of a dripper immersed in the soil.
7-year old trees of flat peach (Prunus persica var. platycarpa) grafted on the GF677 root stock with visible symptoms of chlorosis
The chelates were applied at the following concentrations: • EDDHA/Fe^3+: high concentration (0.9 g of the chelated Fe/tree) • HBED/Fe^3+: high concentration (0.9 g of the chelated Fe/tree) • control trial: without Fe
The chelate solutions were dosed directly to the ground below the dripper. In this case, the whole dose of the chelates were applied in one portion. The symptoms of chlorosis were visible at the beginning of the experiment.
The samples for determination of the SPAD index of leaves were taken approximately every two weeks (on day 0, 20, 40 and 63 after application of the chelates).

[2] = tested on: 10-year old nectarine trees, cultivar "Zephyr" grafted on the GF677 root stock; test: Field test, testing field No. 1: SPAD index; conditions: 0.9 g of the chelated Fe/tree
Method: as §1
10-year old nectarine trees, cultivar “Zephyr” grafted on the GF677 root stock
The chelates were applied at the following concentrations: • EDDHA/Fe^3+: high concentration (0.9 g of the chelated Fe/tree) • HBED/Fe^3+: low concentration (0.45 g of the chelated Fe/tree) • HBED/Fe^3+: high concentration (0.9 g of the chelated Fe/tree) • control trial: without Fe
The chelate solutions of various concentrations were applied in three portions (50%, 30%, and finally 20% of the whole dose, respectively) directly to the ground below the dripper.
The SPAD index was measured approximately every two weeks: on day 14, 29, 44, 61, 88 and 99 after application of the chelates.

[3] = tested on: soybean (Glycine max L.) var. Stine 0480; test: Fertilising of soya in plant growth climatic chamber: SPAD index (leaves greenness); conditions: end of experiment
Method: (§2) The experiment was performed using the seeds of soybean (Glycine max L.) var. Stine 0480. A standard seed germination procedure was followed. Before starting the experiment, the seeds were thoroughly washed with water (30 minutes). The clean seeds were placed between two sheets of a cellulose paper soaked with water. The seeds germinated over two days in a climatic chamber at a temperature of 30° C. and a humidity of 60%, without access of light. After that time, the seedlings at a similar stage of development were placed on perforated trays floating over containers containing 10 L of the diluted nutrient solution for four days, followed by next three days using a solution containing micronutrients but without iron. Composition of the nutrient solution was: 1 mM Ca(NO3)2, 0.90 mM KNO3, 0.30 mM MgSO4, 0.10 mM KH2PO4, 2.5 μM MnSO4, 1.0 μM CuSO4, 10 μM ZnSO4, 1.0 μM NiCl2, 1.0 μM CoSO4, 115.5 μM Na2EDTA, 231 μM KOH, 35 μM NaCl, 10 μM H3BO3, 0.05 μM Na2MoO4 and 0.1 mM of N-(2-hydroxyethyl)piperazine-N′-(2-ethanesulfonic acid) sodium salt (HEPES). The pH value was adjusted to 7.5 using 1M KOH. 1-litre pots were filled with soil and sand in a volume ratio of 2:1. The test plants were transplanted into the thus-prepared pots, 3 plants per each pot. The experiment was carried out with adhering to the daily cycle of plant growth: 16 h of day time (30° C., 50% humidity) and 8 h of night time (25° C., 70% humidity).
(§3) Seven days after transplanting the plants into the pots, the symptoms of chlorosis were observed. The further part of the experiment was aimed at comparison of the effectiveness of performance of FeHBED with that of the commercially available FeEDDHA. For this purpose, the solutions of FeHBED and FeEDDHA were prepared, in which the iron isotope ^57Fe was used. The concentrations of ^57Fe in the doses were 0, 1.7, 3.4, 8.4, 16.8, 25.1 and 41.9 μmol of ^57Fe/kg of soil. Each dose was applied in duplicate. Additionally, a blank test (without iron) was performed for three pots.
The SPAD index (a measure of leaves greenness) was determined every two days during the whole experiment.

[4] = tested on: soybean (Glycine max L.) var. Stine 0480; test: Fertilising of soya in plant growth climatic chamber: plant dry matter
Method: as §2, §3
Table 1 summarises the results of dry matter of above-ground sprouts (leaves and stems) for the plants gathered after every application of iron solutions of various concentration for two samplings.

SMILES: O=C([O-])C(NCCNC(C(=O)[O-])c1ccccc1[O-])c1ccccc1[O-].[Fe+3] (stereo not shown) [EDDHA/Fe^3+, reference compound]
- ΔSPAD index of leaves ([1]; day 0 after application): 0
- ΔSPAD index of leaves ([1]; day 20 after application): 13.00
- ΔSPAD index of leaves ([1]; day 40 after application): 17.50
- ΔSPAD index of leaves ([1]; day 63 after application): 17.25
- The SPAD index of the fructifying branches ([2]; day 14 after application): 36.00
- The SPAD index of the non-fructifying branches ([2]; day 14 after application): 35.69
- The SPAD index of the fructifying branches ([2]; day 29 after application): 37.00
- The SPAD index of the non-fructifying branches ([2]; day 29 after application): 37.77
- The SPAD index of the fructifying branches ([2]; day 44 after application): 37.82
- The SPAD index of the non-fructifying branches ([2]; day 44 after application): 36.23
- The SPAD index of the fructifying branches ([2]; day 61 after application): 37.82
- The SPAD index of the non-fructifying branches ([2]; day 61 after application): 35.15
- The SPAD index of the fructifying branches ([2]; day 88 after application): 39.09
- The SPAD index of the non-fructifying branches ([2]; day 88 after application): 37.38
- The SPAD index of the fructifying branches ([2]; day 99 after application): 38.91
- The SPAD index of the non-fructifying branches ([2]; day 99 after application): 36.92

SMILES: O=C([O-])C(NCCNC(C(=O)[O-])c1ccccc1[O-])c1ccccc1[O-].[Fe+3] (stereo not shown) [o,oEDDHA, reference compound]
- The SPAD index, 2nd level of foliage ([3]; 1.7 μmol of 57Fe/kg of soil): 37.92
- The SPAD index, 3rd level of foliage ([3]; 1.7 μmol of 57Fe/kg of soil): 43.18
- The SPAD index, 2nd level of foliage ([3]; 3.4 μmol of 57Fe/kg of soil): 34.58
- The SPAD index, 3rd level of foliage ([3]; 3.4 μmol of 57Fe/kg of soil): 40.00
- The SPAD index, 2nd level of foliage ([3]; 8.4 μmol of 57Fe/kg of soil): 31.67
- The SPAD index, 3rd level of foliage ([3]; 8.4 μmol of 57Fe/kg of soil): 36.82
- The SPAD index, 2nd level of foliage ([3]; 16.8 μmol of 57Fe/kg of soil): 32.92
- The SPAD index, 3rd level of foliage ([3]; 16.8 μmol of 57Fe/kg of soil): 40.46
- The SPAD index, 2nd level of foliage ([3]; 25.1 μmol of 57Fe/kg of soil): 37.08
- The SPAD index, 3rd level of foliage ([3]; 25.1 μmol of 57Fe/kg of soil): 37.73
- The SPAD index, 2nd level of foliage ([3]; 41.9 μmol of 57Fe/kg of soil): 38.75
- The SPAD index, 3rd level of foliage ([3]; 41.9 μmol of 57Fe/kg of soil): 44.55
- Root dry weight ([4]; dose 1.7 μmol 57Fe/kg of soil): 0.44 g/3 plants
- Sprout dry weight, 1 sampling ([4]; dose 1.7 μmol 57Fe/kg of soil): 0.88 g/plant
- Sprout dry weight, 2 sampling ([4]; dose 1.7 μmol 57Fe/kg of soil): 2.08 g/plant
- Root dry weight ([4]; dose 3.4 μmol 57Fe/kg of soil): 0.51 g/3 plants
- Sprout dry weight, 1 sampling ([4]; dose 3.4 μmol 57Fe/kg of soil): 0.79 g/plant
- Sprout dry weight, 2 sampling ([4]; dose 3.4 μmol 57Fe/kg of soil): 2.92 g/plant
- Root dry weight ([4]; dose 8.4 μmol 57Fe/kg of soil): 0.49 g/3 plants
- Sprout dry weight, 1 sampling ([4]; dose 8.4 μmol 57Fe/kg of soil): 0.87 g/plant
- Sprout dry weight, 2 sampling ([4]; dose 8.4 μmol 57Fe/kg of soil): 2.03 g/plant
- Root dry weight ([4]; dose 16.8 μmol 57Fe/kg of soil): 0.53 g/3 plants
- Sprout dry weight, 1 sampling ([4]; dose 16.8 μmol 57Fe/kg of soil): 0.84 g/plant
- Sprout dry weight, 2 sampling ([4]; dose 16.8 μmol 57Fe/kg of soil): 2.56 g/plant
- Root dry weight ([4]; dose 25.1 μmol 57Fe/kg of soil): 0.59 g/3 plants
- Sprout dry weight, 1 sampling ([4]; dose 25.1 μmol 57Fe/kg of soil): 0.81 g/plant
- Sprout dry weight, 2 sampling ([4]; dose 25.1 μmol 57Fe/kg of soil): 2.73 g/plant
- Root dry weight ([4]; dose 41.9 μmol 57Fe/kg of soil): 0.49 g/3 plants
- Sprout dry weight, 1 sampling ([4]; dose 41.9 μmol 57Fe/kg of soil): 0.86 g/plant
- Sprout dry weight, 2 sampling ([4]; dose 41.9 μmol 57Fe/kg of soil): 3.20 g/plant
